This note sets out measurements from publication PMC3308197 (Journal of Medicinal Chemistry, 2012).

For the data set the following is noted: from measured plasma protein binding in vitro of 92%.

Take `Cc1cc(-c2nnc(N)nc2-c2ccccc2)cc(C(F)(F)F)n1` [Compound 4k, 6-[2-Methyl-6-(trifluoromethyl)pyridin-4-yl]-5-phenyl-1,2,4-triazin-3-amine]: the unbound plasma fraction was determined as 8%.
